From patent US20240366809A1, “INHIBITOR OF PROSTATE SPECIFIC MEMBRANE ANTIGEN AND PHARMACEUTICAL USE THEREOF” (TIANJIN HENGRUI MEDICINE CO., LTD., priority 2021, published 2024)
“And” between values parts separate entries of the source, which are not always exact repeats. Identical values can stand only once.

How the values were obtained:
rhPSMA [1] = biological target: T1, rhPSMA (Homo sapiens (Human), UniProt Q04609); assay: Affinity assays using enzyme activity method (Test Example 2); format: biochemical
Description: (§1) Buffer 1 (50 mM HEPES, 0.1 M NaCl, pH 7.5) was used to prepare a 0.4 μg/mL rhPSMA solution and a 40 μM solution of the substrate N-Acetyl-Asp-Glu. rhPSMA was mixed with the small molecules to be tested in a 96-well plate, with a constant rhPSMA content of 50 ng/well maintained. Meanwhile, the small molecules were step-wise diluted to final concentrations of 1 μM, 100 nM, 33.3 nM, 11.1 nM, 3.7 nM, 1.2 nM, 0.41 nM, 0.137 nM, 0.045 nM, and 0 nM. In addition, a positive control was set up using PSMA-617. The rhPSMA-small molecules were taken at 40 μL/well and well mixed with the 40 μM solution of the substrate N-Acetyl-Asp-Glu (40 μL/well). The mixtures were incubated at 37° C. in the dark for 1 h, were heated at 70° C. for 5 min to quench the reactions, and were cooled to room temperature. Buffer 2 (0.2 M NaOH, 0.1% beta-Mercaptoethanol) was used to prepare a 15 mM OPA solution. The OPA solution was added to the reaction systems at 80 μL/well and well mixed, and then the plate was incubated at room temperature for 10 min. The mixtures were taken at 100 μL/well and added to a 96-well Flat Black. With the excitation wavelength set to 330 nm and the emission wavelength to 465 nm, the intensity of signals was measured. IC50 values were obtained from dose-response curves.

rhPSMA [2] = biological target: T1, rhPSMA; assay: Tests for inhibitory activity against PSMA (Test Example 1); format: biochemical; settings: rhPSMA 50 ng/well, substrate N-Acetyl-Asp-Glu, 37° C. 1 h
Description: • 1. Multifunctional microplate reader (SPARK, TECAN) • 2. rhPSMA (R&D, 4234-ZN) • 3. N-Acetyl-Asp-Glu (Sigma, A5930) • 4. OPA (Sigma, P0657)
PSMA inhibitors can bind to the enzyme PSMA to prevent the enzyme PSMA from decomposing the substrate N-Acetyl-Asp-Glu. In this experiment, the extent to which the substrate was decomposed and the resulting ultraviolet absorption changes were measured to evaluate the capacities of the PSMA inhibitors to bind to the enzyme PSMA, and the activity of the compounds was evaluated with IC50 values.
as §1
The capacities of the compounds of the present disclosure to bind to the enzyme GCPII can be measured through the assay described above.

LnCaP tumor = assay: Biodistribution of 68Ga-labeled compounds in LnCaP tumor-bearing mice; format: in vivo
Description: After single tail-vein injections into mice, the in-vivo distributions of ^68Ga-labeled compound v (Example 9) and compound x (Example 11) in the positive LnCaP tumor-bearing mice were observed.
At 2 h after the injection, a total of 3 animals were sacrificed by cervical dislocation, and tissue samples were collected, including samples of the blood, the heart, the lungs, the liver, the spleen, the kidneys, the stomach, the intestine, the bones, the flesh, the brain, the salivary gland, the large intestine, the pancreas, and the tumor. The net weight of the tissues was measured first, and the radioactivity counts of the collected tissues were then measured using a γ-counter. The distributions of the labeled compounds in the different tissues and organs of the mice were measured. Meanwhile, a test sample was accurately diluted 100-fold, and 0.1 mL of the dilution was added to a counting tube and used as standard 1% ID (i.e., one percent of the injected dose). The radioactivity counts of the 1% ID standard and the biological samples were measured simultaneously on a γ-counter. The biodistribution data were expressed as the percentage of the radioactivity counts per gram of tissue or organ to the total injected dose (radioactivity counts) (% ID/g).

[3] = Pharmacokinetics in blood of normal mice after single tail-vein injection; format: in vivo; settings: for Blood % ID/g: normal mice, individual animals 1-4
Description: Through single tail-vein injections into mice, the pharmacokinetics of ^68Ga-v (Example 9) and PSMA-617 in blood was studied.
Each mouse was dosed at 50 μCi/100 μL, and blood samples were taken from the orbit 0.083, 0.25, 0.5, 1, 2, and 4 h post-dose (4 animals per time point). The blood samples were collected in pre-weighed sample tubes. The tubes were weighed and the weight of the blood samples was recorded. Then radioactivity counting was performed using a γ-counter. Meanwhile, a test sample was accurately diluted 100-fold, and 0.1 mL of the dilution was added to a counting tube and used as standard 1% ID (i.e., one percent of the injected dose). The radioactivity counts of the 1% ID standard and the biological samples were measured simultaneously on a γ-counter. The data on blood were expressed as the percentage of the radioactivity counts per gram of blood to the total injected dose (radioactivity counts) (% ID/g). Pharmacokinetic parameters were calculated from blood drug concentration data.

human organs = assay: Absorbed doses of radiation, estimates for human organs (OLINDA software)
Description: The AUC of drug metabolisms was calculated from the biodistribution (Bio-D) data and imported into the OLINDA software to generate doses of radiation absorbed by all the organs.

[4] = 2 h after injection, LnCaP tumor-bearing mice

T1 sequence (Q04609 44-750): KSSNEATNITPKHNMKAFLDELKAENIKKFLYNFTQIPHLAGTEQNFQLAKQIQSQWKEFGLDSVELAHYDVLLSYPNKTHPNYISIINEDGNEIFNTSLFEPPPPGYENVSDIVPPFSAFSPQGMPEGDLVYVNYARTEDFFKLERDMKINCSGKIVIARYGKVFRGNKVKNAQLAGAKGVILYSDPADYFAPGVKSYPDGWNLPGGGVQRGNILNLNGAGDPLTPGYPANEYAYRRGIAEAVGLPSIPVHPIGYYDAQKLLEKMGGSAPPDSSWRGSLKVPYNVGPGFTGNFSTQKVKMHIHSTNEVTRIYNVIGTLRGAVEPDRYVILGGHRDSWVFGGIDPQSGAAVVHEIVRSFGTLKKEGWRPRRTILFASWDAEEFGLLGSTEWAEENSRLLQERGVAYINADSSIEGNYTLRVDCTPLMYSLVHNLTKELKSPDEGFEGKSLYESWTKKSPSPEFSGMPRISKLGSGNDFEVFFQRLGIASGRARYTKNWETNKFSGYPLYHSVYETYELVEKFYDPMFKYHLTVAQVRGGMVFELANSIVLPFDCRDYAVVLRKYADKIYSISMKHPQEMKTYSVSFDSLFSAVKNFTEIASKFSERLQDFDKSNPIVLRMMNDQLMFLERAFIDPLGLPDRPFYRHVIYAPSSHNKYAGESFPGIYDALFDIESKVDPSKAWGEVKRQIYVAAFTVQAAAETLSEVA

## O=C(O)CC[C@H](NC(=O)N[C@@H](CCCCNC(=O)[C@H](Cc1ccc2ccccc2c1)NC(=O)[C@H]1CC[C@H](CNC(=O)CN2CCN(CC(=O)O)CCN(CC(=O)O)CCN(CC(=O)O)CC2)CC1)C(=O)O)C(=O)O [PSMA-617, reference compound]
rhPSMA [1]; ratio of IC50 values
  Ratio to PSMA-617: 1.00
rhPSMA [1]; rhPSMA 50 ng/well, substrate N-Acetyl-Asp-Glu, 37° C. 1 h
  IC50: 1.65 nM
rhPSMA [2]
  IC50: 2.36 nM

## N[C@@H](Cc1ccncc1)C(=O)NCCCC[C@H](NC(=O)N[C@@H](CCC(=O)O)C(=O)O)C(=O)O
rhPSMA [2]
  IC50: 178 nM

## O=C(O)CC[C@H](NC(=O)N[C@@H](CCCCNC(=O)[C@H](Cc1ccc2ccccc2c1)NC(=O)[C@H]1CC[C@@]2(CC1)CN(C(=O)CN1CCN(CC(=O)O)CCN(CC(=O)O)CCN(CC(=O)O)CC1)CCO2)C(=O)O)C(=O)O [drawing 156]
rhPSMA [2]
  IC50: 1.52 nM

## NCc1cnn([C@@H](Cc2ccccc2)C(=O)NCCCC[C@H](NC(=O)N[C@@H](CCC(=O)O)C(=O)O)C(=O)O)c1
rhPSMA [2]
  IC50: 143 nM

## O=C(O)CC[C@H](NC(=O)N[C@@H](CCCCNC(=O)[C@H](Cc1ccc2ccccc2c1)NC(=O)N1CCC(CNC(=O)CN2CCN(CC(=O)O)CCN(CC(=O)O)CCN(CC(=O)O)CC2)CC1)C(=O)O)C(=O)O
rhPSMA [2]
  IC50: 4.13 nM

## O=C([O-])CN1CCN(CC(=O)[O-])CCN(CC(=O)N2CCO[C@]3(CC[C@H](C(=O)N[C@@H](Cc4ccc5ccccc5c4)C(=O)NCCCC[C@H](NC(=O)N[C@@H](CCC(=O)O)C(=O)O)C(=O)O)CC3)C2)CCN(CC(=O)[O-])CC1.[68Ga+3] [^68Ga-v]
LnCaP tumor; [4]
  targeting effect on the LnCap tumor: good targeting effect on the LnCap tumor
  tumor uptake, comparison in words: better than ^68Ga-x (Example 11)'s
LnCaP tumor; 2 h after injection, tissues other than tumor, kidneys, liver, lung, spleen
  uptake values in the other tissues: very low
LnCaP tumor; 2 h after single tail-vein injection, LnCaP tumor-bearing mice
  uptake value in the LnCap tumor: ~10 Id %/g
[3]; 5 effective half-lives
  time estimated using 5 effective half-lives: 2.27 h
[3]; 0.083 h post-dose
  Blood % ID/g: 5.89 % ID/g and 4.98 % ID/g and 5.26 % ID/g and 4.11 % ID/g
[3]; 0.25 h after the injections, mean of n=4
  content of the radioactive substance in the blood: 1.25±0.22 % ID/g
[3]; 0.25 h post-dose
  Blood % ID/g: 1.33 % ID/g and 1.11 % ID/g and 1.52 % ID/g and 1.03 % ID/g
[3]; 0.5 h post-dose
  Blood % ID/g: 1.15 % ID/g and 0.52 % ID/g and 0.79 % ID/g and 0.99 % ID/g
[3]; 1 h post-dose
  Blood % ID/g: 0.33 % ID/g and 0.19 % ID/g (2×) and 0.16 % ID/g
[3]; 2 h post-dose
  Blood % ID/g: 0.07 % ID/g and 0.13 % ID/g and 0.10 % ID/g and 0.11 % ID/g
[3]; 4 h post-dose
  Blood % ID/g: 0.06 % ID/g and 0.02 % ID/g and 0.10 % ID/g and 0.08 % ID/g
[3]; according to calculations
  effective half-life Te: 27 min
[3]; blood of mice
  elimination phase half-life: 45.5 min
[3]; blood of normal mice
  half-life in the blood: 7.8 min
[3]; blood of normal mice, 0-4 h
  AUCINF_obs: 1.66 ± 0.24 h* % ID/g
  AUClast: 1.67 ± 0.26 h* % ID/g
  Cl_obs: 12.17 ± 1.77 μCi/h* % ID/g
  Cmax: 5.06 ± 0.74 % ID/g
  MRTlast: 23.4 ± 1.2 min
  Vz_obs: 4.97 ± 1.09 μCi/% ID/g
  t1/2: 7.8 min
[3]; blood of normal mice, 0-4 h, listed as 68Ga-V
  t1/2: 7.8 ± 2.4 min
[3]; estimated as 5 times the half-life
  time after dosing at which substantially metabolized: 3.9 h
Human organs; from Table 5
  absorbed dose of radiation, comparison with the labeled PSMA-617 in words: half of that resulting from ^68Ga-PSMA-617
Human organs; human organ: Adrenals
  radiation dose estimate, Adrenals: 8.50E−03 mSv/MBq
Human organs; human organ: Brain
  radiation dose estimate, Brain: 3.99E−02 mSv/MBq
Human organs; human organ: Esophagus
  radiation dose estimate, Esophagus: 3.77E−03 mSv/MBq
Human organs; human organ: Eyes
  radiation dose estimate, Eyes: 1.84E−03 mSv/MBq
Human organs; human organ: Gallbladder Wall
  radiation dose estimate, Gallbladder Wall: 5.52E−03 mSv/MBq
Human organs; human organ: Heart Wall
  radiation dose estimate, Heart Wall: 1.62E−02 mSv/MBq
Human organs; human organ: Kidneys
  radiation dose estimate, Kidneys: 3.54E−02 mSv/MBq
Human organs; human organ: Left colon
  radiation dose estimate, Left colon: 6.87E−03 mSv/MBq
Human organs; human organ: Liver
  radiation dose estimate, Liver: 2.50E−02 mSv/MBq
Human organs; human organ: Lungs
  radiation dose estimate, Lungs: 1.05E−02 mSv/MBq
Human organs; human organ: Osteogenic Cells
  radiation dose estimate, Osteogenic Cells: 4.65E−03 mSv/MBq
Human organs; human organ: Pancreas
  radiation dose estimate, Pancreas: 9.51E−03 mSv/MBq
Human organs; human organ: Prostate
  radiation dose estimate, Prostate: 3.77E−03 mSv/MBq
Human organs; human organ: Rectum
  radiation dose estimate, Rectum: 1.99E−01 mSv/MBq
Human organs; human organ: Red Marrow
  radiation dose estimate, Red Marrow: 2.12E−03 mSv/MBq
Human organs; human organ: Right colon
  radiation dose estimate, Right colon: 3.43E−03 mSv/MBq
Human organs; human organ: Salivary Glands
  radiation dose estimate, Salivary Glands: 1.81E−03 mSv/MBq
Human organs; human organ: Small Intestine
  radiation dose estimate, Small Intestine: 1.31E−01 mSv/MBq
Human organs; human organ: Spleen
  radiation dose estimate, Spleen: 5.13E−02 mSv/MBq
Human organs; human organ: Stomach Wall
  radiation dose estimate, Stomach Wall: 8.54E−02 mSv/MBq
Human organs; human organ: Testes
  radiation dose estimate, Testes: 3.51E−04 mSv/MBq
Human organs; human organ: Thymus
  radiation dose estimate, Thymus: 1.99E−03 mSv/MBq
Human organs; human organ: Thyroid
  radiation dose estimate, Thyroid: 9.11E−04 mSv/MBq
Human organs; human organ: Urinary Bladder Wall
  radiation dose estimate, Urinary Bladder Wall: 2.27E−03 mSv/MBq
Human organs; human: Effective Dose
  radiation dose estimate, Effective Dose: 2.10E−02 mSv/MBq
Human organs; human: Total Body
  radiation dose estimate, Total Body: 0.496E−02 mSv/MBq

## NCc1ccc(C(=O)Nc2cccc(C(=O)NCCCC[C@H](NC(=O)N[C@@H](CCC(=O)O)C(=O)O)C(=O)O)n2)cc1
rhPSMA [2]
  IC50: 2.42 nM
